# Test results: US20240409530A1, “Disubstituted Pyrimidine Compounds for Ketohexokinase Inhibition” (Centennial Therapeutics, LLC, priority 2023, published 2024)
# Experiments:
# human KHK in HepG2 Cells = human KHK in HepG2 Cells (Homo sapiens (Human), UniProt P50053); assay: Cell-based potency assay (HepG2 assay), F1P by LC/MS; conditions: fructose 20 mM, 20 min, F1P produced
# Protocol: Testing inhibition effect of compounds against human KHK in HepG2 Cells
# (§1) HepG2 cells were grown in RPMI1640 supplemented media on 100 mm plates to near confluency (about 5-8×10^6 cells). The growth media was aspirated and 4 mL trypsin solution (0.25% (w/v)+0.25% (w/v) EDTA) was added, followed by incubation at 37° C. for 5-10 mins. The cells were pelleted and resuspended in 2 mL complete media.
# The cells were then placed in a 96 well plate at 20,000-50,000 cells per well and grown for 20-28 hours at 37° C. to allow adherence.
# Inhibitor compounds were diluted in DMSO to 50 μM, then serially diluted with MEM media (ThermoFisher). Final inhibitor concentration ranged from 1000 nM to 0.064 nM (5-fold dilution series).
# The RPMI medium was removed from the plate of confluent cells. The plate was then incubated for 35 min at 37°, after which were added 0.1 mL of the diluted inhibitor compounds in MEM with fructose, 0.1 mL of MEM media without inhibitor compound or fructose, or trypsin; yielding a final concentration of fructose at 20 mM. The plate was subsequently incubated for 20 min at 37°, then placed on ice to stop the reactions.
# Next, 200 μL of cold 80% (v/v) methanol:water was added to all wells, except the controls used to enumerate cell count. The plate was vortexed and cell debris removed by centrifugation. To measure F1P produced, the resulting supernatant fraction was analyzed by LC/MS.
# Rat recombinant KHK-A = Rat recombinant KHK-A (Rattus norvegicus (Rat), UniProt Q02974); assay: KHK inhibition assay, recombinant isozyme (coupled pyruvate kinase/LDH, NADH absorbance 340 nm); format: biochemical; conditions: recombinant isozyme 6 nM, fructose 2 mM, ATP 0.1 mM
# Protocol: (§2) Determination of Human and Rat recombinant KHK-A and KHK-C isozyme IC50 Values
# (§3) An assay reagent cocktail was prepared by combining NADH, water, TEA, KCl, MgCl2, PEP, ATP, DTT, coupling enzymes (pyruvate kinase and lactate dehydrogenase, LDH) to final concentrations as shown in Table B.
# (§4) To this was added the relevant KHK isozyme to a final concentration of 6 nM. Aliquots of each inhibitor compound were diluted via 5-fold serial dilutions to produce final concentrations ranging from 1000 nM to 0.064 nM. The inhibitor aliquots were added to the assay reagent cocktail containing KHK with fructose (at a concentration of 2 mM) in a 96-well plate. The absorbance at 340 nm was measured via spectrophotometry and inhibition was analyzed using non-linear regression.
# Human recombinant KHK-C = Human recombinant KHK-C (Homo sapiens (Human), UniProt P50053); assay: as above; format: biochemical; conditions: recombinant isozyme 6 nM, fructose 2 mM, ATP 0.1 mM
# Protocol: as §2, §3, §4
# Rat recombinant KHK-C = Rat recombinant KHK-C (Rattus norvegicus (Rat), UniProt Q02974); assay: as above; format: biochemical; conditions: recombinant isozyme 6 nM, fructose 2 mM, ATP 0.1 mM
# Protocol: as §2, §3, §4
# Human recombinant KHK-A = Human recombinant KHK-A (Homo sapiens (Human), UniProt P50053); assay: as above; format: biochemical; conditions: recombinant isozyme 6 nM, fructose 2 mM, ATP 0.1 mM
# Protocol: as §2, §3, §4
# [1] = molecular target: human KHK-C in engineered HepG2 cells (Homo sapiens (Human), UniProt P50053); assay: Cell-based potency assay (KHK-C-overexpressing HepG2 assay), F1P by LC/MS; conditions: fructose 30 mM, 5 min, F1P produced, geomean
# Protocol: Testing inhibition effect of compounds against human KHK-C in engineered HepG2 cells.
# Engineered HepG2 cells were generated using methods known to those of skill in the art. Briefly, HepG2 cells were incubated with lentivirus carrying a transgene encoding human KHK-C, and grown under antibiotic selection.
# as §1, with “KHK-C-overexpressing HepG2” for “HepG2”, “T-182 cm^2 flask” for “100 mm plates”, “25-40×10^6” for “5-8×10^6”, “aspirated, the flask was washed with 10 mL PBS,” for “aspirated”, “3-5” for “5-10”
# The cells were then placed in a 96-well plate at 20,000-40,000 cells per well and grown for 20-28 hours at 37° C. to allow adherence.
# Inhibitor compounds were diluted in DMSO to 50 μM, then serially diluted with MEM media (ThermoFisher). Final inhibitor concentration ranged from 5000 nM to 0.32 nM.
# The RPMI medium was removed from the plate of confluent cells. The plate was then incubated for 35 min at 37° C. with 0.1 mL of the diluted inhibitor compounds in MEM. After, an additional 0.1 mL of the diluted inhibitor compounds in MEM with fructose, or 0.1 mL of MEM media without inhibitor compound and/or fructose; yielding a final concentration of fructose at 30 mM was added. The plate was subsequently incubated for 5 min at 37° C., then placed on ice to stop the reactions.
# Next 200 μL of cold 80% (v/v) methanol:water was added to al wells and placed in the −80° C. freezer for 1 hour with an adhesive seal. The plate was vortexed and cell debris removed by centrifugation. To measure F1P produced, the resulting supernatant fraction was analyzed by LC/MS.
# Chain of Human recombinant KHK-A (P50053 other isoform, or with tags, fused parts or gaps): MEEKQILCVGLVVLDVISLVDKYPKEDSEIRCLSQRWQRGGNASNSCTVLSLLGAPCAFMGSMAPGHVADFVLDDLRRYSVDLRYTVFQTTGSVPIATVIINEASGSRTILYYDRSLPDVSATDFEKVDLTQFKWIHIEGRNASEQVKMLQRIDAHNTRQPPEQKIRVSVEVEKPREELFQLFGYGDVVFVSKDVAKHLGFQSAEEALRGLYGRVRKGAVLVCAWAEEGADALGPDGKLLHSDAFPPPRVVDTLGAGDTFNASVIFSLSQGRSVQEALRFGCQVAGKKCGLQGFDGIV
# Chain of Rat recombinant KHK-C (Q02974 whole entry): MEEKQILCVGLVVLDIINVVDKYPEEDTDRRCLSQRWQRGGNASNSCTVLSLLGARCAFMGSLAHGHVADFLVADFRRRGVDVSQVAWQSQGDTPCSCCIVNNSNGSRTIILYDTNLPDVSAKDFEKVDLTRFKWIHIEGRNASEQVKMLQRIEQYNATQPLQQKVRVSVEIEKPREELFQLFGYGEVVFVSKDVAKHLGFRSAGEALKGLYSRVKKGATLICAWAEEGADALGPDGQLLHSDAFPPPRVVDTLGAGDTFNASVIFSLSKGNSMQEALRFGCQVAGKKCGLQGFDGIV
# Chain of human KHK in HepG2 Cells (P50053 whole entry): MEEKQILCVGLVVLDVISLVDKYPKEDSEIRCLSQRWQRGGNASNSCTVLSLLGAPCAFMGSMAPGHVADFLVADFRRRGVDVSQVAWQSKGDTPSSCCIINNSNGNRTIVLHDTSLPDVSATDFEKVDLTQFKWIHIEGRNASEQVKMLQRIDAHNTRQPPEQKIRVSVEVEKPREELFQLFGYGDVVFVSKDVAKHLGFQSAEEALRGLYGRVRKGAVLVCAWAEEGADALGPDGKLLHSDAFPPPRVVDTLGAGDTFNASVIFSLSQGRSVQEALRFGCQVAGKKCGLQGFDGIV
# Chain of Human recombinant KHK-C (P50053 whole entry): as above
# Chain of human KHK-C in engineered HepG2 cells (P50053 whole entry, stated change not applied): as the sequence (P50053 whole entry) above
# Chain of Rat recombinant KHK-A (Q02974 other isoform, or with tags, fused parts or gaps): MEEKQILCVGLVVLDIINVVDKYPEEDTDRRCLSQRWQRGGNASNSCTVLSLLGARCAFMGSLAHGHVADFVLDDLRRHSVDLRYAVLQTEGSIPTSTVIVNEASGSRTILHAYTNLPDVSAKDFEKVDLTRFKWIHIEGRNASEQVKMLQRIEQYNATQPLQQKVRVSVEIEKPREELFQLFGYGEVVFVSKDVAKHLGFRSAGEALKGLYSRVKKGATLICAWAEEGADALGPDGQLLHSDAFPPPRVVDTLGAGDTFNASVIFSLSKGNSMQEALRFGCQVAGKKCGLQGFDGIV
SMILES,IC50 (human KHK in HepG2 Cells),IC50 (Rat recombinant KHK-A),IC50 (Human recombinant KHK-C),IC50 (Rat recombinant KHK-C),IC50 (Human recombinant KHK-A),IC50 [1]
"Cc1c(-c2cnn(CC(=O)N3CCNCC3)c2)nc(N2CC[C@@H]2C)nc1C(F)(F)F [Compound A3, 2-(4-{2-[(S)-2-methyl-1-azetidinyl]-5-methyl-6-(trifluoromethyl)-4-pyrimidinyl}-1-pyrazolyl)-1-(1-piperazinyl)-1-ethanone]",25 nM,2.9 nM,7.48 nM,8.3 nM,4.6 nM,186 nM
"C[C@H]1[C@H](O)CN1c1nc(-c2cnn(C3CN(C)C3)c2)cc(C(F)F)n1 [Compound A9, (2S,3R)-1-{6-(difluoromethyl)-4-[1-(1-methyl-3-azetidinyl)-4-pyrazolyl]-2-pyrimidinyl}-2-methyl-3-azetidinol]",,10 nM,40.5 nM,37 nM,22 nM,184 nM
"Cc1c(-c2cnn(C3CN(C)C3)c2)nc(N2C[C@@H](O)[C@@H]2C)nc1C(F)(F)F [Compound A12, (2S,3R)-2-methyl-1-{5-methyl-4-[1-(1-methyl-3-azetidinyl)-4-pyrazolyl]-6-(trifluoromethyl)-2-pyrimidinyl}-3-azetidinol]",1 nM,1.3 nM,1.05 nM,3.3 nM,4.1 nM,33.5 nM
"Cc1c(-c2cnn(C3CN(C)C3)c2)nc(N2C[C@@H](O)[C@@H]2C)nc1C(F)F [Compound A21, (2S,3R)-1-{6-(difluoromethyl)-5-methyl-4-[1-(1-methyl-3-azetidinyl)-4-pyrazolyl]-2-pyrimidinyl}-2-methyl-3-azetidinol]",2 nM,1.46 nM,1.5 nM,3.33 nM,2.05 nM,36.5 nM
"Cc1c(-c2cnn(C3CNC3)c2)nc(N2C[C@@H](O)[C@@H]2C)nc1C(F)F [Compound A35, (2S,3R)-1-{4-[1-(3-azetidinyl)-4-pyrazolyl]-6-(difluoromethyl)-5-methyl-2-pyrimidinyl}-2-methyl-3-azetidinol]",9 nM,4.1 nM,4.85 nM,7.7 nM,1.9 nM,82 nM

# Next, values leading:
IC50 (human KHK in HepG2 Cells),IC50 (Rat recombinant KHK-A),IC50 (Human recombinant KHK-C),IC50 (Rat recombinant KHK-C),IC50 (Human recombinant KHK-A),IC50 [1],SMILES
91 nM,,,,,457 nM,"C[C@H]1CCN1c1nc(-c2cnn(CC(=O)N3CCNCC3)c2)cc(C(F)(F)F)n1 [Compound C2, reference compound]"
4 nM,,,,,191 nM,"C[C@H]1[C@H](O)CN1c1nc(-c2cnn(C3CN(C)C3)c2)cc(C(F)(F)F)n1 [Compound C3, reference compound]"
